In assay [1] the test system is BC-3 and BCBL-1 cells. The assay can be described thus: Combination index (Chou and Talalay, calcusyn), MTS viability. Format: cell-based. Particulars: low doses, 12 combinations each, all combination doses tested. On the procedure: (§1) Cells from exponentially growing cultures were plated in untreated flat-bottom 96 well plates at a density of 5×10^3 cells/well, treated with an increasing concentration of the drugs and subsequently assessed for cell viability using the MTS reagent (3-4,5-dimethylthiazol-2yl)-5-(3-carboxy-methoxyphenyl)-2-(4-sulfophenyl)-2H-tetrazolium, inner salt) following the manufacturer's instructions (Promega). Percent cell survival was calculated based on the reading of cells grown in the presence of DMSO control. Experiments were performed in triplicate and have been repeated 2-3 times.

The subject of assay [2] is BC-3 cells. Kind of assay: PEL orthotopic tumor model. Format: in vivo, NOD.SCID mice. Details: dose or concentration left out as unconfirmed. Particulars: once daily for 28 days, intraperitoneally. The procedure: A total of 2×10^7 BC-3 cells were injected intraperitoneally into female NOD.SCID mice (NCI Frederick, 6 weeks old). 5 days after tumor cells inoculation the mice were randomly divided in to 4 groups (n=7 each). […] (once daily), JQ-1 50 mg/kg b.w. (once daily) and the combination were administered intraperitoneally daily for 28 days. Then the animals were monitored for survival. Body weight gain was measured once in 3 days as a surrogate measure of tumor progression (Qin et al., 2014). The experiments were performed following the guidelines of institutional animal ethics committee.

The test system of assay [3] is IKZF1 (Ikaros), IKZF3 (Aiolos). The assay can be described thus: Immunoblot of IKZF1 and IKZF3 expression. Format: cell-based. Particulars: BC-3 and BCBL-1, MLN4924 pretreatment 1 h then IMiDs 15 h.
Experimental: (§2) Cells were lysed in lysis buffer containing 20 mM sodium phosphate (pH 7.4), 150 mM NaCl, 0.1% Triton X-100, 0.2 M PMSF, and 10% glycerol supplement with a protease inhibitor mixture tablet (Roche). Whole cell extracts were resolved by SD-polyacrylamide gel electrophoresis, transferred to nitrocellulose membrane, and probed with the indicated primary antibodies. Bound antibodies were detected with IRdye 680 or 800 (Licor biosciences) and blots were scanned with licor odyssey CLx imaging system (Licor biosciences). Primary antibodies used in these experiments were from the following sources: PARP (9542), NF-κB2 (p100/p52; 4882) from Cell Signaling; IRF4 (6059), IKZF1 (13039), HSP90 (69703), IKKα/β (7607), RELB (226) from Santa Cruz Biotechnology; MYC (1472-1, Epitomics); tubulin (T9026), cereblon (HPA045910) from Sigma; GAPDH (1107018, Ambion), IKZF3 (6255, Imgenex) and BRD4 (a gift from Dr. Peter Howley, Harvard Medical School).
In assay [4] the test system is PEL cell lines. The assay can be described thus: Cell viability, MTS assay. Format: cell-based. Particulars: for PEL cell lines sensitive within physiologically achievable doses: 7 PEL cell lines, increasing concentrations; for sensitivity of the 5 PEL cell lines to recombinant IFN: BC-3, BCBL-1, JSC-1, BC-1 and VG-1, 5 days. On the procedure: as §1
In assay [5] the test system is PEL cells. The assay can be described thus: Real-time qRT-PCR of mRNA expression. Format: cell-based. The procedure:
Real-time quantitative reverse transcript-polymerase chain reaction (qRT-PCR) was performed with SYBR Green using gene-specific PCR primers. Samples were run in triplicate, and PCR was performed by an ABI Step One Plus thermocycler (Applied Biosystems). GAPDH was used as housekeeping gene and qRT-PCR data (Ct values) was analyzed using the 2^−ΔΔCT method as described earlier (Zhao et al., 2007). The qRT-PCR data was presented as fold change in target gene expression±standard error.
For orientation: Real-time PCR tracks product formation cycle by cycle.

The test system of assay [6] is BC-3 and BCBL-1 cells. Kind of assay: Genome-wide microarray analysis. Particulars: 5 μM, 24 h.
Experimental: Two technical replicates per cell line per condition (8 samples total) were assayed on the Illumina Human HT12 BeadChip whole genome expression microarray, with coverage of 39809 coding transcripts and 3961 non-coding transcripts. Probe intensities were extracted directly from binary IDAT files using the ‘illuminaio’ package (Smith et al., 2013). Background correction and normalization was then performed using ‘limma’ package (Smyth, 2005). An estimate of the fraction of probes with detectable expression (approximately 47% of the probes present on the array) was extracted by comparing the negative control probe intensities with hybridization probe intensities; probes failing this cutoff were filtered from further analysis. An empirical Bayes linear model including treatment and cell-line specific effects was fitted to the filtered data, again using ‘limma’. […] Hierarchial clustering with Euclidean distance and centroid linkage was performed in R (http://www.R-project.org). A heat map of differences (corrected for cell-line-specific effects) was plotted.
In assay [7] the test system is IKKα/β, p100/p52 and RELB. Kind of assay: Immunoblot of NF-κB proteins. Format: cell-based. Particulars: BC-3, BCBL-1, JSC-1 and DG-75 cells, increasing doses. On the technique in general: Immunoblotting shows a protein as a band on a membrane.
Experimental: as §2
For assay [8], the system named is IL-6. Kind of assay: IL-6 ELISA in supernatants of BC-3 cells. Particulars: 12, 24 and 48 h. Format: cell-based, Human. On the procedure:
IL-6 was measured in supernatants using BD OptEIA™ Human IL-6 ELISA set as per manufacturer's instructions.
For orientation: In an ELISA, binding on a coated surface is turned into a signal by an enzyme label.

In assay [9] the test system is PEL. Particulars: treated for 18 months so far (Antar et al., 2014); cited from earlier work.
Assay [10] deals with cereblon (CRBN) (Homo sapiens, UniProt Q96SW2). Particulars: 48 h. On the procedure:
Cells were lysed in lysis buffer containing 20 mM sodium phosphate (pH 7.4), 150 mM NaCl, 0.1% Triton X-100, […], and 10% glycerol supplement with a protease inhibitor mixture tablet (Roche). Whole cell extracts were resolved by SD-polyacrylamide gel electrophoresis, transferred to nitrocellulose membrane, and probed with the indicated primary antibodies. Bound antibodies were detected with IRdye 680 or 800 (Licor biosciences) and blots were scanned with licor odyssey CLx imaging system (Licor biosciences).

The test system of assay [11] is panel of hematological cancer cell lines. Kind of assay: Cell viability, MTS assay, panel of hematological cancer cell lines. Particulars: 5 days, increasing concentrations. Format: cell-based. On the procedure:
as §1

Assay [12] deals with BJAB cells. The assay can be described thus: Cell viability, MTS assay. Format: cell-based. Particulars: 5 days. The procedure:
as §1

The mark [13] stands for this setting: BC-3, BCBL-1 and JSC-1, 5 μM, 24 h.

cereblon (CRBN), sequence (Q96SW2 whole entry): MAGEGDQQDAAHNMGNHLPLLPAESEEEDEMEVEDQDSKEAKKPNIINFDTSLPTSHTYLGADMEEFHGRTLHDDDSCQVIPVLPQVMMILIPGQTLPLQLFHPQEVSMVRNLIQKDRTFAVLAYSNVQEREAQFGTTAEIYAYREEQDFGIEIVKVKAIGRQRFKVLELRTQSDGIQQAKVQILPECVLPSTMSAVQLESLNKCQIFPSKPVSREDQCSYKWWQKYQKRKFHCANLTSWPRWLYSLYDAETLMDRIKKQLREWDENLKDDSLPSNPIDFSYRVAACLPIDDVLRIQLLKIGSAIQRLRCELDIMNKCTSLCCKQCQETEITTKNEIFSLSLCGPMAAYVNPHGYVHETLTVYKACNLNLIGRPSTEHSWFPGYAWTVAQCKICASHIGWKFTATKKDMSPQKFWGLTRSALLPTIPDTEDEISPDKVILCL

Turning to `COc1cc2c(cc1-c1c(C)noc1C)ncc1[nH]c(=O)n([C@H](C)c3ccccn3)c12` [IBET151], the “synergy of lenalidomide with BRD4 inhibitor (combination index)” value in [1] was “highly synergistic”.

On to `Cc1sc2c(c1C)C(c1ccc(Cl)cc1)=N[C@@H](CC(=O)OC(C)(C)C)c1nnc(C)n1-2` [JQ-1], for which the “synergy of lenalidomide with BRD4 inhibitor (combination index)” value in assay [1] was “highly synergistic”. Moreover, the median survival in assay [2] amounted to 42 days.

For the compound `NS(=O)(=O)OC[C@@H]1C[C@@H](n2ccc3c(N[C@H]4CCc5ccccc54)ncnc32)C[C@@H]1O` [MLN4924], in assay [3], the “effect on downregulation of IKZF1 by IMiDs” value was “completely blocked”.

Take `COc1ccccc1S(=O)(=O)Nc1ccc2c(c1)CN(C)C(=O)N2` [PFI-1]: in [1], the “synergy of lenalidomide with BRD4 inhibitor (combination index)” value was “highly synergistic”.

As to `Nc1cccc2c1CN(C1CCC(=O)NC1=O)C2=O` (stereo not shown) [lenalidomide], the “PEL cell lines sensitive within physiologically achievable doses” value in [4] (5 days) is given as 5/7. Further, in assay [5] (setting [13]), the “mRNA levels of IKZF1” value is “moderately up-regulated”; the “mRNA levels of IRF4, MYC and its target TERT” value was “down-regulated mildly, and moderately”. For the same compound, the “transcript levels of IFNs and interferon specific genes (ISGs)” value in assay [5] (BCBL-1 cells, 5 μM, 24 hours) is “upregulated”. Also, the median survival in assay [2] is reported as 35 days. In [6], the downregulated genes turned out to be 390 genes and the upregulated genes amounted to 602 genes. The “genes whose expression changed significantly (pFDR<0.05)” value in assay [6] (both cell lines) worked out at 992 genes. Further, in [7], the “expression of IKKα/β, p100/p52 and RELB proteins” value is given as “did not have any significant effect”. Also, the “IL-6 secretion by BC-3 cells” value in assay [8] is “did not have any significant effect”. Also, in [9], the “outcome of elderly HIV-negative, KSHV-positive PEL patient” value is recorded as “without any symptoms or evidence of disease progression”.

Take `Nc1cccc2c1C(=O)N(C1CCC(=O)NC1=O)C2=O` (stereo not shown) [pomalidomide]: in assay [10], the “CRBN level in BCBL-1 cells” value is reported as “no change” and the “level of cereblon in BC-3 cells” value is “slight decrease”. In addition, the “PEL cell lines sensitive within physiologically achievable doses” value in assay [4] (5 days) was 6/7.

For the compound `O=C1CCC(N2C(=O)c3ccccc3C2=O)C(=O)N1` (stereo not shown) [thalidomide], in assay [11], the “effect on the growth of the cell lines” value is listed as “did not have any major effect”.

Take IFN-α: in [4] (5 days), the “sensitivity of BC-3, BCBL-1 and JSC-1 to recombinant IFN” value is reported as “highly sensitive”. Further, the “sensitivity of the 5 PEL cell lines to recombinant IFN” value in assay [4] is listed as “sensitive”. Besides, the “effect of recombinant IFN on BJAB” value in [12] was “very little effect”.

Turning to IFN-γ: recombinant interferon γ, in [4], the “sensitivity of the 5 PEL cell lines to recombinant IFN” value was “sensitive”. Besides, the “effect of recombinant IFN on BJAB” value in [12] is “without any significant effect”.

These data come from patent US9931332B2, “Compositions and methods for treating primary effusion lymphoma” (University of Southern California, priority 2014, dated 2018).
